Source: ChEMBL document CHEMBL3045096, “Pharmacophore modeling and 3D-QSAR (CoMSIA) studies for structural requirements of some triazine derivatives as G-quadruplex binders for telomerase inhibition” (Med Chem Res, 2013)

Target: Telomerase reverse transcriptase (Homo sapiens, UniProt O14746)
Assay: Inhibition of telomerase (unknown origin)

Sequence of Telomerase reverse transcriptase (O14746 whole entry): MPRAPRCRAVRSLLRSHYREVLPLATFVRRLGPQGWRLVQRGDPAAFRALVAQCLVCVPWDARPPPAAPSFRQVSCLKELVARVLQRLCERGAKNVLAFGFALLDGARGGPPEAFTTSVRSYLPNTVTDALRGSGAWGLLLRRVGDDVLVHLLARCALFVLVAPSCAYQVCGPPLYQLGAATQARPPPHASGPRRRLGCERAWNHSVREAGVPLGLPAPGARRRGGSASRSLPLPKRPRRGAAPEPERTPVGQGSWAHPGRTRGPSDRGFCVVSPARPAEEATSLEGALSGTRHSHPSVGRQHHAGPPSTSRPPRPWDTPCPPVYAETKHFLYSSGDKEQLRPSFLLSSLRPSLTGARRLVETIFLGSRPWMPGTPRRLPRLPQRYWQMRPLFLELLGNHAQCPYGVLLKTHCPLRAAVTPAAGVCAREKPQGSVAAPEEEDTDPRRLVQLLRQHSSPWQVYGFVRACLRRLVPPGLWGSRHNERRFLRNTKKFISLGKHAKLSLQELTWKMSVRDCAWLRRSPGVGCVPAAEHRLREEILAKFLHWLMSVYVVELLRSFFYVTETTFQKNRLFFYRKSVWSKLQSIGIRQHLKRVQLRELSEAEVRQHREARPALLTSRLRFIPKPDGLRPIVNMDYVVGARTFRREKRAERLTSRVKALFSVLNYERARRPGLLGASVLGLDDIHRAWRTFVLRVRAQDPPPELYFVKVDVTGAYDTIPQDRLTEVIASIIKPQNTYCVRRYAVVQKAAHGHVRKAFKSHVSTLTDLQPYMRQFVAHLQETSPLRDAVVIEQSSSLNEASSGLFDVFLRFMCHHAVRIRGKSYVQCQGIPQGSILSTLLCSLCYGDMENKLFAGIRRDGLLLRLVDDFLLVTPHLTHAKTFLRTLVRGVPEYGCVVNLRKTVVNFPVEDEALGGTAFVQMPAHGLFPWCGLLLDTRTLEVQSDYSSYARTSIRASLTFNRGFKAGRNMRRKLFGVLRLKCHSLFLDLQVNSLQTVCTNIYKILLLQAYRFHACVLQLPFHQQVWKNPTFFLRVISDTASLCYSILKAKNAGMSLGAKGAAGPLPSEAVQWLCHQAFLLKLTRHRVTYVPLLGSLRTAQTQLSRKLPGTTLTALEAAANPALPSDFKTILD

Compound `C[n+]1c2ccccc2c(N)c2cc(Nc3nc(N)nc(Nc4ccc5c(c4)c(N)c4ccccc4[n+]5C)n3)ccc21` has an IC50 of 890 nM.

Work on `Cc1cc(N)c2cc(Nc3ccnc(Nc4ccc5nc(C)cc(N)c5c4)n3)ccc2n1` yielded an IC50 of 490 nM.

`CSc1nc(Nc2ccc3nc(C)cc(C)c3c2)nc(Nc2ccnc3ccccc23)n1` showed an IC50 of 3400 nM.

`COc1ccc2nccc(Nc3nc(Nc4ccc5nc(C)cc(C)c5c4)nc(SC)n3)c2c1` showed an IC50 of 3300 nM.

With `CCc1cc(Nc2nc(Nc3ccc4nc(C)cc(N)c4c3)nc(SC)n2)ccn1` the IC50 was 2200 nM.

`CCn1c2ccccc2c2cc(Nc3nc(Nc4ccc5nc(C)cc(N)c5c4)nc(SC)n3)ccc21` was tested, and the IC50 was 2800 nM.

Compound `Cc1cc(N)c2cc(NC(=N)NC(=N)Nc3ccc4nc(C)cc(N)c4c3)ccc2n1` has an IC50 of 2000 nM.

With `CSc1nc(Nc2ccc3nc(C)cc(N)c3c2)nc(Nc2ccc3nc(C)cc(N(C)C)c3c2)n1` the IC50 was 340 nM.

`CSc1nc(Nc2ccc3nc(C)cc(C)c3c2)nc(Nc2ccc3nc(C)cc(N)c3c2)n1` showed an IC50 of 3400 nM.

Compound `CSc1nc(Nc2ccc3ncccc3c2)nc(Nc2ccc3nc(C)cc(N)c3c2)n1` has an IC50 of 2600 nM.

`Cc1cc(N)c2cc(Nc3nc(Nc4ccc5c(c4)c(N)cc(C)[n+]5C)nc(N(C)C)n3)ccc2[n+]1C` showed an IC50 of 220 nM.

Work on `Cc1cc(N)c2cc(Nc3nc(N)nc(Nc4ccc5nc(C)cc(N)c5c4)n3)ccc2n1` yielded an IC50 of 51 nM.

`CNc1nc(Nc2ccc3nc(C)cc(N)c3c2)nc(Nc2ccc3nc(C)cc(N)c3c2)n1` gave an IC50 of 510 nM.

For `CCN(CC)c1nc(Nc2ccncc2)nc(Nc2ccc3nc(C)cc(C)c3c2)n1`, the IC50 was 3400 nM.

For `CCN(CC)c1nc(Nc2ccc3ncccc3c2)nc(Nc2ccc3nc(C)cc(N)c3c2)n1`, the IC50 was 2500 nM.

Work on `CSc1nc(Nc2cccc(C(=N)N)c2)nc(Nc2ccc3nc(C)cc(N)c3c2)n1` yielded an IC50 of 3300 nM.

For `CSc1nc(Nc2ccc3nc(C)ccc3c2)nc(Nc2ccc3nc(C)cc(N)c3c2)n1`, the IC50 was 1000 nM.

`N=C(N)c1ccc(Nc2nc(N)nc(Nc3ccc(C(=N)N)cc3)n2)cc1` showed an IC50 of 740 nM.

`COc1cc(C)nc2ccc(Nc3nc(Nc4ccc5nc(C)cc(N)c5c4)nc(SC)n3)cc12` was tested, and the IC50 was 2300 nM.

For `CSc1nc(Nc2ccc3nc(C)cc(N)c3c2)nc(Nc2ccc3nc(C)cc(N)c3c2)n1`, the IC50 was 49 nM.

`C[n+]1cccc2cc(Nc3nc(N)nc(Nc4ccc5c(ccc[n+]5C)c4)n3)ccc21` was tested, and the IC50 was 130 nM.

In the case of `Cc1cc(N)c2cc(Nc3nc(N)nc(Nc4ccc5c(c4)c(N)cc(C)[n+]5C)n3)ccc2[n+]1C`, the IC50 is reported as 250 nM.

For `COc1cc(C)nc2ccc(Nc3nc(Nc4ccc5nc(C)cc(OC)c5c4)nc(SC)n3)cc12`, the IC50 was 3900 nM.

In the case of `CSc1nc(Nc2ccc3nc(C)cc(N(C)C)c3c2)nc(Nc2ccc3nc(C)cc(N(C)C)c3c2)n1`, the IC50 is reported as 41 nM.

Compound `CSc1nc(Nc2ccc3nc[nH]c3c2)nc(Nc2ccc3nc(C)cc(C)c3c2)n1` has an IC50 of 3300 nM.

`CSc1nc(Nc2ccc3c(c2)c(=N)cc(C)n3C)nc(Nc2ccc3c(c2)c(=N)cc(C)n3C)n1` was tested, and the IC50 was 950 nM.

In the case of `CC[n+]1c(C)cc(N)c2cc(Nc3nc(N)nc(Nc4ccc5c(c4)c(N)cc(C)[n+]5CC)n3)ccc21`, the IC50 is reported as 56 nM.

`CSc1nc(Nc2ccc3nc(C)cc(N)c3c2)nc(N(C)c2ccc3ncccc3c2)n1` was tested, and the IC50 was 3500 nM.

`CNc1nc(Nc2ccc3nc(C)cc(NC)c3c2)nc(Nc2ccc3nc(C)cc(NC)c3c2)n1` showed an IC50 of 300 nM.

`CSc1nc(Nc2ccc(C#N)cc2)nc(Nc2ccc3nc(C)cc(N)c3c2)n1` was tested, and the IC50 was 3400 nM.

For `Cc1cc(N(C)C)c2cc(Nc3nc(Cl)nc(Nc4ccc5nc(C)cc(N(C)C)c5c4)n3)ccc2n1`, the IC50 was 3000 nM.
